Assay results taken from ChEMBL document CHEMBL2390846, “Small-molecule pyrimidine inhibitors of the cdc2-like (Clk) and dual specificity tyrosine phosphorylation-regulated (Dyrk) kinases: development of chemical probe ML315” (Bioorg Med Chem Lett, 2013).
Values after ≈ are worked out from the molar mass of the structure shown.

Tests used:
[1] = molecular target: Dual specificity tyrosine-phosphorylation-regulated kinase 1B (Homo sapiens, UniProt Q9Y463)
[2] = molecular target: Dual specificity protein kinase CLK2 (Homo sapiens, UniProt P49760)
[3] = molecular target: T1, Dual specificity tyrosine-phosphorylation-regulated kinase 1A (Homo sapiens, UniProt Q13627)
[4] = molecular target: Dual specificity protein kinase CLK1 (Homo sapiens, UniProt P49759)
[5] = molecular target: Dual specificity protein kinase CLK3 (Homo sapiens, UniProt P49761)
[6] = molecular target: T2, Dual specificity protein kinase CLK4 (Homo sapiens, UniProt Q9HAZ1); test: Inhibition of CLK4 (unknown origin) by bioluminescence assay; details: read-out: IC50
[7] = molecular target: T2, Dual specificity protein kinase CLK4
[8] = molecular target: T1, Dual specificity tyrosine-phosphorylation-regulated kinase 1A; test: Inhibition of DYRK1A (unknown origin) by bioluminescence assay; details: read-out: IC50
[9] = Plasma protein binding in mouse at 10 uM; assay type: ADME, cell-free; details: read-out: PPB (converted)
[10] = Permeability of the compound in aqueous buffer at donor compartment pH 7.4 and acceptor compartment pH 7.4 by PAMPA; assay type: ADME
[11] = Solubility of the compound in assay media at pH 7.5; assay type: physicochemical
[12] = Metabolic stability in mouse plasma assessed as compound remaining at 3 hrs; assay type: ADME, cell-free; details: read-out: Stability
[13] = Metabolic stability in human plasma assessed as compound remaining at 3 hrs; assay type: ADME, cell-free; details: read-out: Stability
[14] = Permeability of the compound in aqueous buffer at donor compartment pH 5.0 and acceptor compartment pH 7.4 by PAMPA; assay type: ADME
hERG (KCNH2) = hERG (KCNH2) (Homo sapiens, UniProt Q12809); test: Inhibition of human ERG at 10 uM relative to control
[15] = Metabolic stability in mouse liver microsomes assessed as compound remaining at 1 hr; assay type: ADME, Microsome; details: read-out: Stability
[16] = Plasma protein binding in human at 10 uM; assay type: ADME, cell-free; details: read-out: PPB (converted)
[17] = molecular target: L-type calcium channel, benzothiazepine binding site (Rattus norvegicus, UniProt P22002+P27732+Q02485); test: Inhibition of rat L-type calcium channel benzothiazepine binding site at 10 uM relative to control
[18] = Aqueous solubility of the compound in PBS at pH 7.4; assay type: physicochemical
[19] = Metabolic stability in human liver microsomes assessed as compound remaining at 1 hr; assay type: ADME, Microsome; details: read-out: Stability
[20] = Permeability of the compound in aqueous buffer at donor compartment pH 6.2 and acceptor compartment pH 7.4 by PAMPA; assay type: ADME
[21] = Hepatotoxicity against human Fa2N-4 cells; assay type: toxicity, cell-based; details: read-out: LC50 (the source's name)
[22] = Plasma protein binding in mouse at 1 uM; assay type: ADME, cell-free; details: read-out: PPB (converted)
[23] = Plasma protein binding in human at 1 uM; assay type: ADME, cell-free; details: read-out: PPB (converted)

Dual specificity protein kinase CLK1, sequence (P49759 whole entry): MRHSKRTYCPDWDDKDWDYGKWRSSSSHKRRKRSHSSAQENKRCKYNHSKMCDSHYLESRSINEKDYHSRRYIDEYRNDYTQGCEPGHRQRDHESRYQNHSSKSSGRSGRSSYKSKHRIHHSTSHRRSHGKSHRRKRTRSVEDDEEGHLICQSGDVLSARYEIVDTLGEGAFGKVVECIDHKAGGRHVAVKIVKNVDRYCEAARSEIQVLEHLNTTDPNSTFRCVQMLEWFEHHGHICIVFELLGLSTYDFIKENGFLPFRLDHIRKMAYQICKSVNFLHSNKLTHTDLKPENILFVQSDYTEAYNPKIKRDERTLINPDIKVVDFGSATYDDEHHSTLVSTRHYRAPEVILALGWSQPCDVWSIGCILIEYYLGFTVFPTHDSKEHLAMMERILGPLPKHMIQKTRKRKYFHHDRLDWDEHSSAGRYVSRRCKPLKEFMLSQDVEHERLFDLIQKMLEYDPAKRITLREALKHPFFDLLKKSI
T2 sequence (Q9HAZ1 whole entry): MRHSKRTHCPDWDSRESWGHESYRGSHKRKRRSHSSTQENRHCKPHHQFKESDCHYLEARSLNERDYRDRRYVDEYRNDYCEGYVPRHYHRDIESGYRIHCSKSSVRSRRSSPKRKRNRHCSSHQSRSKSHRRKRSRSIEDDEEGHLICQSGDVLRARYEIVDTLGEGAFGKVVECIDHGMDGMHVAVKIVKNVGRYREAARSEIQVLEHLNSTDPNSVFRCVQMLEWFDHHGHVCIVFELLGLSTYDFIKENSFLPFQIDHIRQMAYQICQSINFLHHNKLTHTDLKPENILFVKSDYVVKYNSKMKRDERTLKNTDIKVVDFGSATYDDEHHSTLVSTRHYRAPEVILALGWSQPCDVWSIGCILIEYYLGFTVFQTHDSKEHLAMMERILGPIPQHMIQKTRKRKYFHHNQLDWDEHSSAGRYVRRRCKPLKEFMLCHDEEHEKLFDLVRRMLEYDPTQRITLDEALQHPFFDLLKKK
Dual specificity protein kinase CLK3, sequence (P49761 whole entry): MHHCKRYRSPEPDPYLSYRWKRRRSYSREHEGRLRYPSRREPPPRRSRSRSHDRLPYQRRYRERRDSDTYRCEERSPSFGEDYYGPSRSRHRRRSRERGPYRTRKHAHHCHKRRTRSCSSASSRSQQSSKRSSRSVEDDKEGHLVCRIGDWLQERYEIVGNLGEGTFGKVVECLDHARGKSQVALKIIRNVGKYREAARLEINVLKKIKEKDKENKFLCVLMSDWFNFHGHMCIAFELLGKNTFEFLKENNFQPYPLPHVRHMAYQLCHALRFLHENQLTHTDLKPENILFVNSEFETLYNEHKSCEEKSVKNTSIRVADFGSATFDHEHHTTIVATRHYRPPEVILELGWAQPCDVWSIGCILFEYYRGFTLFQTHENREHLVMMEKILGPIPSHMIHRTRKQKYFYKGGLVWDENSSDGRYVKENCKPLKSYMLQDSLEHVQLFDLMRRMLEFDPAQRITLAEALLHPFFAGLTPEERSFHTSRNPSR
Dual specificity protein kinase CLK2, sequence (P49760 whole entry): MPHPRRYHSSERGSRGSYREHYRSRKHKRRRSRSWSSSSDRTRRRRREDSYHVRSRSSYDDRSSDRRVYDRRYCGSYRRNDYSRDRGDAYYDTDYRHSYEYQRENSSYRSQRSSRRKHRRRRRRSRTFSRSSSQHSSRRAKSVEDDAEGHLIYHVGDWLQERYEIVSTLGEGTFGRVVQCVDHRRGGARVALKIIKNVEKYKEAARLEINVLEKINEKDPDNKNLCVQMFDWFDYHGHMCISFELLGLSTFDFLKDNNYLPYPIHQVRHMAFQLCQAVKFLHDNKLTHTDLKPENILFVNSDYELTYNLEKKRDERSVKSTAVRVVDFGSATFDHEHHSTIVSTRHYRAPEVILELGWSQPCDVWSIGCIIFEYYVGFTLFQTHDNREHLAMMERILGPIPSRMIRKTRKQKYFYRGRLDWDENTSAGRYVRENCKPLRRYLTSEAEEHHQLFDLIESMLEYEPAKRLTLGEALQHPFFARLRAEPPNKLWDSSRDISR
Dual specificity tyrosine-phosphorylation-regulated kinase 1B, sequence (Q9Y463 whole entry): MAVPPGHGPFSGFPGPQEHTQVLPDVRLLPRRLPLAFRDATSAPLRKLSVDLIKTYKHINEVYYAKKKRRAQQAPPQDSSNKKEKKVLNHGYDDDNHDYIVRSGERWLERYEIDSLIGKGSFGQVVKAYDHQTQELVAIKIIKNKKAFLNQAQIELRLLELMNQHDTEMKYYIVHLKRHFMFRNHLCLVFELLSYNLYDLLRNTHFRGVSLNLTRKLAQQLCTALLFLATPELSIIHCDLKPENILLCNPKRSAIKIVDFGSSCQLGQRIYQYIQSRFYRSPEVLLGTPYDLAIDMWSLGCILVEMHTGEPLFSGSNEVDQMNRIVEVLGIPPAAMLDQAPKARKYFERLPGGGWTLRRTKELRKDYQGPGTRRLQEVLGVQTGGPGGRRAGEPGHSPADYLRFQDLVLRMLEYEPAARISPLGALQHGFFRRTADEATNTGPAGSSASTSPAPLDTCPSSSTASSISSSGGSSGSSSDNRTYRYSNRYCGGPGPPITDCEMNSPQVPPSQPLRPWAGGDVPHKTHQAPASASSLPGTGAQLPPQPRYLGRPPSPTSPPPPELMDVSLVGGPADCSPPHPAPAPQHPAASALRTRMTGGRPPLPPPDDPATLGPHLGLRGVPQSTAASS
hERG (KCNH2), sequence (Q12809 whole entry): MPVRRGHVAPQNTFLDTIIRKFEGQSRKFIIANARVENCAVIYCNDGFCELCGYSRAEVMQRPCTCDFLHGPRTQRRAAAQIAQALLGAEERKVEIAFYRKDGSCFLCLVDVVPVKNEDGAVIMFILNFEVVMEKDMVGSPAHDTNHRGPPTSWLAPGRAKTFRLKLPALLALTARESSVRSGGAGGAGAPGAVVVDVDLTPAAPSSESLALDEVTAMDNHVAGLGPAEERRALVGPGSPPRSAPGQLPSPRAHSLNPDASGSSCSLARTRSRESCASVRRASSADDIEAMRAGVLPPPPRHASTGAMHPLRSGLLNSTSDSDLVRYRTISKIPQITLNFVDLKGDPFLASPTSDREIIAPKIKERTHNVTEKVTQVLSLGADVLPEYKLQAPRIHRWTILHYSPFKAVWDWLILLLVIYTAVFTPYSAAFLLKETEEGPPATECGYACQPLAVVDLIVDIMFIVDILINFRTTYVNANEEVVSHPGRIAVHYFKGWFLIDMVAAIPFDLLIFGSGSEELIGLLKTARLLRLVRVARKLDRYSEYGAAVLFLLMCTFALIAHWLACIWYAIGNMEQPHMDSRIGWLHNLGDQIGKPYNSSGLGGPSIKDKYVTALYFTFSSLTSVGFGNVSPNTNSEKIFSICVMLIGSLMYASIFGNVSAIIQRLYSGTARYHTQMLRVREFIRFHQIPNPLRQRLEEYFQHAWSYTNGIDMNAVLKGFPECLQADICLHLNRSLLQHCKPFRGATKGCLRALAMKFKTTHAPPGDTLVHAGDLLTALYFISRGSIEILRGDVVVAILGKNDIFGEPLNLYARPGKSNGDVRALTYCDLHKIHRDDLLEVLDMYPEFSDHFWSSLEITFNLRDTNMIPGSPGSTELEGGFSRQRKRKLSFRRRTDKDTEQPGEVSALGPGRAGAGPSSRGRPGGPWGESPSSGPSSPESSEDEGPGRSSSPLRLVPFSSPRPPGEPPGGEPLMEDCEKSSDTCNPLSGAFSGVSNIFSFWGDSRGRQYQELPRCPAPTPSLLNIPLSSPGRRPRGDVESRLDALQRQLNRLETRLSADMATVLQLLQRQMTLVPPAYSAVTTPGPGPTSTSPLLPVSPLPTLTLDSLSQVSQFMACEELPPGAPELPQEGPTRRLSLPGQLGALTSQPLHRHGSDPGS

Structure (SMILES) | IC50 [1] [nM] | IC50 [2] [nM] | IC50 [3] [nM] | IC50 [4] [nM] | IC50 [5] [nM] | IC50 [6] [nM] | IC50 [7] [nM] | IC50 [8] [nM] | also measured
Clc1ccc(CNc2nccc(-c3ccc4c(c3)OCCO4)n2)cc1Cl | 55 | 39 | 18 | 16 | > 10000 | 120 | 13 | 210 | –
Clc1ccc(CNc2nccc(-c3ccc4cn[nH]c4c3)n2)cc1Cl | 599 | 429 | 169 | 183 | – | 5820 | 123 | 1640 | –
c1cncc(CNc2ccnc(-c3ccc4cn[nH]c4c3)n2)c1 | 829 | 1900 | 1430 | 1600 | – | 290 | 1290 | 2070 | –
Clc1cc(Cl)cc(CNc2nccc(-c3ccc4c(c3)OCO4)n2)c1 | 7 | 23 | – | 2 | > 10000 | – | – | – | –
Brc1ccc(CNc2nccc(-c3ccc4c(c3)OCO4)n2)cc1Br | 112 | 30 | 79 | 24 | 3230 | 80 | 18 | 820 | –
Clc1ccc(CNc2ncncc2-c2ccc3c(c2)OCO3)cc1 | 8860 | 8790 | 4580 | 2370 | – | 5820 | 9280 | 26000 | –
c1cncc(CNc2nccc(-c3ccc4c(c3)OCO4)n2)c1 | 12 | 60 | 7 | 11 | 1470 | 20 | 16 | 40 | –
Clc1ccc(CNc2nccc(-c3ccc4c(c3)OCO4)n2)cc1Cl | 38 | 20 | 26 | 8 | 3630 | 40 | 14 | 160 | –
c1cncc(CNc2nccc(-c3ccc4[nH]ncc4c3)n2)c1 | 93 | 462 | 61 | 73 | 2660 | 30 | 60 | 150 | –
COc1cccc(-c2ccnc(NCc3ccc(Cl)c(Cl)c3)n2)c1 | > 10000 | > 10000 | 4650 | 5460 | – | 3680 | 3860 | 5820 | –
Clc1ccc(CNc2nccc(-c3ccc4[nH]ncc4c3)n2)cc1Cl | 125 | 190 | 129 | 41 | 2930 | 30 | 30 | 330 | –
c1cncc(CNc2ccnc(-c3ccc4[nH]ncc4c3)n2)c1 | 179 | 665 | 349 | 964 | – | 150 | 574 | 650 | –
COc1cccc(-c2ccnc(NCc3ccc(Cl)cc3)n2)c1 | 6780 | > 10000 | 6360 | > 10000 | – | 5820 | 6810 | 7330 | –
FC(F)(F)c1cccc(Nc2nccc(-c3ccc4c(c3)OCO4)n2)c1 | 18 | 52 | 10 | 34 | > 10000 | 70 | 42 | 70 | –
Brc1cc(Br)cc(CNc2nccc(-c3ccc4c(c3)OCO4)n2)c1 | 18 | 41 | 11 | 13 | – | 40 | 9 | 70 | –
COc1ccc(-c2ccnc(NCc3ccc(Cl)cc3)n2)cc1 | 871 | 1090 | 558 | 277 | – | 290 | 319 | 2070 | –
FC(F)(F)c1cc(Br)cc(Nc2nccc(-c3ccc4c(c3)OCO4)n2)c1 | 137 | 345 | 107 | 102 | – | 130 | 86 | 520 | –
Clc1cc(Cl)cc(CNc2ncncc2-c2ccc3c(c2)OCO3)c1 | 1160 | 231 | 282 | 68 | > 10000 | 130 | 68 | 2600 | fraction unbound at 10 µM [9]: 0.0053; permeability [10]: 1150 ×10⁻⁶ cm/s; solubility [11]: 1.71 µM (≈ 0.64 µg/mL); remaining at 3 h [12]: 86.7%; remaining at 3 h [13]: 85.5%; permeability [14]: 2220 ×10⁻⁶ cm/s; inhibition at 10 µM (hERG (KCNH2)): 44%; remaining at 1 h [15]: 0.54%; fraction unbound at 10 µM [16]: 0.0022; inhibition at 10 µM [17]: 26%; solubility [18]: 1.15 µM (≈ 0.43 µg/mL); remaining at 1 h [19]: 1.3%; permeability [20]: 1360 ×10⁻⁶ cm/s; CC50 [21]: > 50000 nM; fraction unbound at 1 µM [22]: 0.0051; fraction unbound at 1 µM [23]: 0.0065
Clc1ccc(Nc2nccc(-c3ccc4c(c3)OCO4)n2)cc1 | 884 | > 10000 | 273 | 1260 | – | 370 | 5450 | 520 | –
